# Results published in ChEMBL document CHEMBL4049462, “Synthesis and Biological Evaluation of Novel Neuroprotective Pyridazine Derivatives as Excitatory Amino Acid Transporter 2 (EAAT2) Activators” (2017).
# Legend:
# Type in all cases: functional
# Rattus norvegicus [1] = experiment: Antihypersensitivity in oxaliplatin-induced Sprague-Dawley rat hyperalgesia model assessed as weight tolerated on posterior paw at 3.42 mg/kg, sc administered daily for 7 days post oxaliplatin challenge measured on day 7 post last dose by analgesimeter (reference value: 46.1 +/- 0.5 g)
# Rattus norvegicus [2] = experiment: Antihypersensitivity in oxaliplatin-induced Sprague-Dawley rat hyperalgesia model assessed as increase in weight tolerated on posterior paw at 3.42 mg/kg, sc administered daily up to day 13 measured on day 14 post last dose by analgesimeter relative to control
# Rattus norvegicus [3] = experiment: Antihypersensitivity in oxaliplatin-induced Sprague-Dawley rat thermal hyperalgesia model assessed as paw withdrawal latency time at 3.42 mg/kg, sc administered daily up to day 6 measured on day 7 post last dose by plantar test (reference value: 9 +/- 1 secs)
# Rattus norvegicus [4] = experiment: Antihypersensitivity in oxaliplatin-induced Sprague-Dawley rat thermal hyperalgesia model assessed as paw withdrawal latency time at 3.42 mg/kg, sc administered daily up to day 13 measured on day 14 post last dose by plantar test (reference value: 10.6 +/- 0.5 secs)
# Rattus norvegicus [5] = experiment: Antiallodynic activity in oxaliplatin-induced Sprague-Dawley rat allodynia model assessed as increase in paw withdrawal latency time at 3.42 mg/kg, sc administered daily up to day 13 measured on day 14 post last dose by Von Frey test relative to control
# Rattus norvegicus [6] = experiment: Antiallodynic activity in oxaliplatin-induced Sprague-Dawley rat allodynia model assessed as paw withdrawal latency time at 3.42 mg/kg, sc administered daily up to day 6 measured on day 7 post last dose by cold plate test (reference value: 14.3 +/- 0.3 secs)
# Rattus norvegicus [7] = experiment: Antiallodynic activity in oxaliplatin-induced Sprague-Dawley rat allodynia model assessed as paw withdrawal latency time at 3.42 mg/kg, sc administered daily up to day 13 measured on day 14 post last dose by cold plate test (reference value: 12 +/- 1.2 secs)
# Rattus norvegicus [8] = experiment: Antihypersensitivity in oxaliplatin-induced Sprague-Dawley rat hyperalgesia model assessed as weight tolerated on posterior paw at 3.37 mg/kg, sc administered daily for 7 days post oxaliplatin challenge measured on day 7 post last dose by analgesimeter (reference value: 46.1 +/- 0.5 g)
# Rattus norvegicus [9] = experiment: Antihypersensitivity in oxaliplatin-induced Sprague-Dawley rat hyperalgesia model assessed as increase in weight tolerated on posterior paw at 3.37 mg/kg, sc administered daily up to day 13 measured on day 14 post last dose by analgesimeter relative to control
# Rattus norvegicus [10] = experiment: Antihypersensitivity in oxaliplatin-induced Sprague-Dawley rat thermal hyperalgesia model assessed as paw withdrawal latency time at 3.37 mg/kg, sc administered daily up to day 6 measured on day 7 post last dose by plantar test (reference value: 9 +/- 1 secs)
# Rattus norvegicus [11] = experiment: Antihypersensitivity in oxaliplatin-induced Sprague-Dawley rat thermal hyperalgesia model assessed as paw withdrawal latency time at 3.37 mg/kg, sc administered daily up to day 13 measured on day 14 post last dose by plantar test (reference value: 10.6 +/- 0.5 secs)
# Rattus norvegicus [12] = experiment: Antiallodynic activity in oxaliplatin-induced Sprague-Dawley rat allodynia model assessed as paw withdrawal latency time at 3.37 mg/kg, sc administered daily up to day 6 measured on day 7 post last dose by Von Frey test (reference value: 12.4 +/- 1.2 secs)
# Rattus norvegicus [13] = experiment: Antiallodynic activity in oxaliplatin-induced Sprague-Dawley rat allodynia model assessed as increase in paw withdrawal latency time at 3.37 mg/kg, sc administered daily up to day 13 measured on day 14 post last dose by Von Frey test relative to control
# Rattus norvegicus [14] = experiment: Antiallodynic activity in oxaliplatin-induced Sprague-Dawley rat allodynia model assessed as increase in paw withdrawal latency time at 3.43 mg/kg, sc administered daily up to day 13 measured on day 14 post last dose by Von Frey test relative to control
# Rattus norvegicus [15] = experiment: Antiallodynic activity in oxaliplatin-induced Sprague-Dawley rat allodynia model assessed as paw withdrawal latency time at 3.37 mg/kg, sc administered daily up to day 6 measured on day 7 post last dose by cold plate test (reference value: 14.3 +/- 0.3 secs)
# Rattus norvegicus [16] = experiment: Antiallodynic activity in oxaliplatin-induced Sprague-Dawley rat allodynia model assessed as paw withdrawal latency time at 3.37 mg/kg, sc administered daily up to day 13 measured on day 14 post last dose by cold plate test (reference value: 12 +/- 1.2 secs)
# Rattus norvegicus [17] = experiment: Antihypersensitivity in oxaliplatin-induced Sprague-Dawley rat thermal hyperalgesia model assessed as paw withdrawal latency time at 3 mg/kg, sc administered daily up to day 13 measured on day 14 post last dose by plantar test (reference value: 10.6 +/- 0.5 secs)
# Rattus norvegicus [18] = experiment: Antiallodynic activity in oxaliplatin-induced Sprague-Dawley rat allodynia model assessed as paw withdrawal latency time at 3.42 mg/kg, sc administered daily up to day 6 measured on day 7 post last dose by Von Frey test (reference value: 12.4 +/- 1.2 secs)
# Rattus norvegicus [19] = experiment: Antihypersensitivity in oxaliplatin-induced Sprague-Dawley rat hyperalgesia model assessed as increase in weight tolerated on posterior paw at 3 mg/kg, sc administered daily for 7 days post oxaliplatin challenge measured on day 7 post last dose by analgesimeter relative to control
# Rattus norvegicus [20] = experiment: Antihypersensitivity in oxaliplatin-induced Sprague-Dawley rat hyperalgesia model assessed as increase in weight tolerated on posterior paw at 3 mg/kg, sc administered daily for 14 days post oxaliplatin challenge measured on day 14 post last dose by analgesimeter relative to control
# Rattus norvegicus [21] = experiment: Antihypersensitivity in oxaliplatin-induced Sprague-Dawley rat thermal hyperalgesia model assessed as paw withdrawal latency time at 3 mg/kg, sc administered daily up to day 6 measured on day 7 post last dose by plantar test (reference value: 9 +/- 1 secs)
# Rattus norvegicus [22] = experiment: Antiallodynic activity in oxaliplatin-induced Sprague-Dawley rat allodynia model assessed as increase in paw withdrawal latency time at 3 mg/kg, sc administered daily up to day 6 measured on day 7 post last dose by Von Frey test relative to control
# Rattus norvegicus [23] = experiment: Antiallodynic activity in oxaliplatin-induced Sprague-Dawley rat allodynia model assessed as increase in paw withdrawal latency time at 3 mg/kg, sc administered daily up to day 13 measured on day 14 post last dose by Von Frey test relative to control
# Rattus norvegicus [24] = experiment: Antiallodynic activity in oxaliplatin-induced Sprague-Dawley rat allodynia model assessed as paw withdrawal latency time at 3 mg/kg, sc administered daily up to day 6 measured on day 7 post last dose by cold plate test (reference value: 14.3 +/- 0.3 secs)
# Rattus norvegicus [25] = experiment: Antiallodynic activity in oxaliplatin-induced Sprague-Dawley rat allodynia model assessed as paw withdrawal latency time at 3 mg/kg, sc administered daily up to day 13 measured on day 14 post last dose by cold plate test (reference value: 12 +/- 1.2 secs)
# Rattus norvegicus [26] = experiment: Antihypersensitivity in oxaliplatin-induced Sprague-Dawley rat hyperalgesia model assessed as weight tolerated on posterior paw at 3.43 mg/kg, sc administered daily for 7 days post oxaliplatin challenge measured on day 7 post last dose by analgesimeter (reference value: 46.1 +/- 0.5 g)
# Rattus norvegicus [27] = experiment: Antihypersensitivity in oxaliplatin-induced Sprague-Dawley rat hyperalgesia model assessed as increase in weight tolerated on posterior paw at 3.43 mg/kg, sc administered daily up to day 13 measured on day 14 post last dose by analgesimeter relative to control
# Rattus norvegicus [28] = experiment: Antihypersensitivity in oxaliplatin-induced Sprague-Dawley rat thermal hyperalgesia model assessed as paw withdrawal latency time at 3.43 mg/kg, sc administered daily up to day 6 measured on day 7 post last dose by plantar test (reference value: 9 +/- 1 secs)
# Rattus norvegicus [29] = experiment: Antihypersensitivity in oxaliplatin-induced Sprague-Dawley rat thermal hyperalgesia model assessed as paw withdrawal latency time at 3.43 mg/kg, sc administered daily up to day 13 measured on day 14 post last dose by plantar test (reference value: 10.6 +/- 0.5 secs)
# Rattus norvegicus [30] = experiment: Antiallodynic activity in oxaliplatin-induced Sprague-Dawley rat allodynia model assessed as paw withdrawal latency time at 3.43 mg/kg, sc administered daily up to day 6 measured on day 7 post last dose by Von Frey test (reference value: 12.4 +/- 1.2 secs)
# Rattus norvegicus [31] = experiment: Antiallodynic activity in oxaliplatin-induced Sprague-Dawley rat allodynia model assessed as paw withdrawal latency time at 3.43 mg/kg, sc administered daily up to day 6 measured on day 7 post last dose by cold plate test (reference value: 14.3 +/- 0.3 secs)
# Rattus norvegicus [32] = experiment: Antiallodynic activity in oxaliplatin-induced Sprague-Dawley rat allodynia model assessed as paw withdrawal latency time at 3.43 mg/kg, sc administered daily up to day 13 measured on day 14 post last dose by cold plate test (reference value: 12 +/- 1.2 secs)
# Rattus norvegicus [33] = experiment: Antihypersensitivity in oxaliplatin-induced Sprague-Dawley rat hyperalgesia model assessed as weight tolerated on posterior paw at 3.28 mg/kg, sc administered daily for 7 days post oxaliplatin challenge measured on day 7 post last dose by analgesimeter (reference value: 46.1 +/- 0.5 g)
# Rattus norvegicus [34] = experiment: Antihypersensitivity in oxaliplatin-induced Sprague-Dawley rat hyperalgesia model assessed as weight tolerated on posterior paw at 3.28 mg/kg, sc administered daily up to day 13 measured on day 14 post last dose by analgesimeter (reference value: 44.7 +/- 1.2 g)
# Rattus norvegicus [35] = experiment: Antihypersensitivity in oxaliplatin-induced Sprague-Dawley rat thermal hyperalgesia model assessed as paw withdrawal latency time at 3.28 mg/kg, sc administered daily up to day 6 measured on day 7 post last dose by plantar test (reference value: 9 +/- 1 secs)
# Rattus norvegicus [36] = experiment: Antihypersensitivity in oxaliplatin-induced Sprague-Dawley rat thermal hyperalgesia model assessed as paw withdrawal latency time at 3.28 mg/kg, sc administered daily up to day 13 measured on day 14 post last dose by plantar test (reference value: 10.6 +/- 0.5 secs)
# Rattus norvegicus [37] = experiment: Antiallodynic activity in oxaliplatin-induced Sprague-Dawley rat allodynia model assessed as increase in paw withdrawal latency time at 3.28 mg/kg, sc administered daily up to day 6 measured on day 7 post last dose by Von Frey test relative to control
# Rattus norvegicus [38] = experiment: Antiallodynic activity in oxaliplatin-induced Sprague-Dawley rat allodynia model assessed as paw withdrawal latency time at 3.28 mg/kg, sc administered daily up to day 13 measured on day 14 post last dose by Von Frey test (reference value: 11.6 +/- 0.5 secs)
# Rattus norvegicus [39] = experiment: Antiallodynic activity in oxaliplatin-induced Sprague-Dawley rat allodynia model assessed as paw withdrawal latency time at 3.28 mg/kg, sc administered daily up to day 6 measured on day 7 post last dose by cold plate test (reference value: 14.3 +/- 0.3 secs)
# Rattus norvegicus [40] = experiment: Antiallodynic activity in oxaliplatin-induced Sprague-Dawley rat allodynia model assessed as paw withdrawal latency time at 3.28 mg/kg, sc administered daily up to day 13 measured on day 14 post last dose by cold plate test (reference value: 12 +/- 1.2 secs)
smiles,measurement,setting,value
c1ccc(-c2ccc(SCc3cc4ccccc4s3)nn2)nc1,Activity,Rattus norvegicus [1],55.3 g
same,Activity,Rattus norvegicus [2],86.2%
same,Time,Rattus norvegicus [3],12.8 s
same,Time,Rattus norvegicus [4],15.1 s
same,Activity,Rattus norvegicus [5],64.3%
same,Time,Rattus norvegicus [6],17.8 s
same,Time,Rattus norvegicus [7],17.5 s
c1ccc(-c2ccc(SCc3ccc4ccccc4n3)nn2)nc1,Activity,Rattus norvegicus [8],48.4 g
same,Activity,Rattus norvegicus [9],31.7%
same,Time,Rattus norvegicus [10],11.6 s
same,Time,Rattus norvegicus [11],13.7 s
same,Time,Rattus norvegicus [12],13.5 s
same,Activity,Rattus norvegicus [13],33%
same,Activity,Rattus norvegicus [14],67.8%
same,Time,Rattus norvegicus [15],14.5 s
same,Time,Rattus norvegicus [16],15.6 s
c1ccc(-c2ccc(SCc3ccc4ccccc4c3)nn2)nc1,Activity,Rattus norvegicus [8],51.9 g
same,Activity,Rattus norvegicus [9],40.1%
same,Time,Rattus norvegicus [10],14.2 s
same,Time,Rattus norvegicus [17],15.5 s
same,Time,Rattus norvegicus [12],17.6 s
same,Activity,Rattus norvegicus [13],53%
same,Time,Rattus norvegicus [15],16 s
same,Time,Rattus norvegicus [16],16.5 s
c1ccc(-c2ccc(SCc3cccc4cccnc34)nn2)nc1,Activity,Rattus norvegicus [8],51.3 g
same,Activity,Rattus norvegicus [9],44.3%
same,Time,Rattus norvegicus [10],12.5 s
same,Time,Rattus norvegicus [17],13.8 s
same,Time,Rattus norvegicus [12],17.6 s
same,Activity,Rattus norvegicus [13],68.7%
same,Time,Rattus norvegicus [18],18.8 s
same,Time,Rattus norvegicus [15],18 s
same,Time,Rattus norvegicus [16],18 s
Cc1ccccc1CSc1ccc(-c2ccccn2)nn1,Activity,Rattus norvegicus [19],67.1%
same,Activity,Rattus norvegicus [20],76.4%
same,Time,Rattus norvegicus [21],14.1 s
same,Time,Rattus norvegicus [17],18.3 s
same,Activity,Rattus norvegicus [22],51.3%
same,Activity,Rattus norvegicus [23],75.9%
same,Time,Rattus norvegicus [24],17 s
same,Time,Rattus norvegicus [25],22.5 s
c1ccc(-c2ccc(SCc3nc4ccccc4s3)nn2)nc1,Activity,Rattus norvegicus [26],54.7 g
same,Activity,Rattus norvegicus [27],72.5%
same,Time,Rattus norvegicus [28],14.3 s
same,Time,Rattus norvegicus [29],15.8 s
same,Time,Rattus norvegicus [30],16.4 s
same,Time,Rattus norvegicus [31],15.8 s
same,Time,Rattus norvegicus [32],16.3 s
c1ccc(-c2ccc(SCc3cccc4nonc34)nn2)nc1,Activity,Rattus norvegicus [33],58.6 g
same,Activity,Rattus norvegicus [34],62.8 g
same,Time,Rattus norvegicus [35],15.2 s
same,Time,Rattus norvegicus [36],18.7 s
same,Activity,Rattus norvegicus [37],62.8%
same,Time,Rattus norvegicus [38],23.8 s
same,Time,Rattus norvegicus [39],19.4 s
same,Time,Rattus norvegicus [40],22 s
